Source: publication PMC3785825 (Journal of the Royal Society Interface, 2013)
No end group written: not given here.

Key:
CGRP receptors = settings: double alanine mutant R^11AR^18A; cited from earlier work
Source text: The loop conformations spanned a large proportion of the space available to ECL2 (figure 4a). […] ECL2 forms an extended loop; this conformation is often seen as two antiparallel beta-strands in all peptide GPCRs for which structures are available, creating a large interface for peptide–receptor contacts. Here, we re-interpret seve ...

[1] = test system: CLR A273L/RAMP1 (CGRP receptor); experiment: AM-stimulated cAMP (alphascreen), A273L mutant; type: cell-based, human; settings: residue A273 (mutated to leucine); effect of mutation on AM
Source text: (§1) Curve fitting was done with […]
(§2) To explore the effects of the above mutants further, their ability to respond to AM through cAMP production was subsequently investigated. […] There was especially good agreement between the two agonists for the central area of functional importance ranging from D280 to T288. […] The effect of mutations at the N- and C-termini of ECL2 was more variable between the two peptides.

[2] = test system: CLR R274A/RAMP1 (CGRP receptor); experiment: AM-stimulated cAMP (alphascreen), R274A mutant; type: cell-based, human
Source text: as §1, §2

[3] = test system: CLR D280A/RAMP1 (CGRP receptor); experiment: AM-stimulated cAMP (alphascreen), D280A mutant; type: cell-based, human
Source text: as §1, §2

[4] = test system: CLR W283A/RAMP1 (CGRP receptor); experiment: AM-stimulated cAMP (alphascreen), W283A mutant; type: cell-based, human
Source text: as §1, §2

[5] = test system: CLR I284A/RAMP1 (CGRP receptor); experiment: AM-stimulated cAMP (alphascreen), I284A mutant; type: cell-based, human; settings: residue I284; effect of alanine mutation on AM
Source text: as §1, §2

[6] = test system: CLR S285A/RAMP1 (CGRP receptor); experiment: AM-stimulated cAMP (alphascreen), S285A mutant; type: cell-based, human; settings: residue S285; effect of alanine mutation on AM
Source text: as §1, §2

[7] = test system: CLR T288A/RAMP1 (CGRP receptor); experiment: AM-stimulated cAMP (alphascreen), T288A mutant; type: cell-based, human; settings: residue T288; effect of alanine mutation on AM
Source text: as §1, §2

[8] = test system: CLR Y277A/RAMP1 (CGRP receptor); experiment: AM-stimulated cAMP (alphascreen), Y277A mutant; type: cell-based, human; settings: Cos 7 cells
Source text: as §1, §2

[9] = test system: CLR Y278A/RAMP1 (CGRP receptor); experiment: AM-stimulated cAMP (alphascreen), Y278A mutant; type: cell-based, human; settings: Cos 7 cells
Source text: as §1, §2

[10] = test system: CLR L290A/RAMP1 (CGRP receptor); experiment: AM-stimulated cAMP (alphascreen), L290A mutant; type: cell-based, human; settings: Cos 7 cells
Source text: as §1, §2

[11] = test system: CLR L291A/RAMP1 (CGRP receptor); experiment: AM-stimulated cAMP (alphascreen), L291A mutant; type: cell-based, human; settings: Cos 7 cells
Source text: as §1, §2

[12] = test system: CLR ECL2 mutants with human RAMP1; experiment: AM-stimulated cAMP (alphascreen), ECL2 alanine scan; type: cell-based; settings: some mutants (not given); Cos 7 cells
Source text: as §1, §2

CGRP receptor = settings: AM at the CGRP receptor versus CGRP; cited from earlier work

AM effect [1]	AM effect ([2]; residue R274, effect of alanine mutation on AM)	AM effect ([3]; residue D280, effect of alanine mutation on AM)	AM effect ([4]; residue W283, effect of alanine mutation on AM)	AM effect [5]	AM effect [6]	AM effect [7]	reduction in maximal cAMP response [8]	reduction in maximal cAMP response [9]	potency versus WT [10]	potency versus WT [11]	Substance	reduction in affinity (CGRP receptors) [fold]	cAMP response / Emax ([2]; R274A, Cos 7 cells)	cAMP response / Emax ([3]; D280A, Cos 7 cells)	cAMP response / Emax ([4]; W283A, Cos 7 cells)	effect on pEC50 [8]	effect on pEC50 [9]	activation of the receptor [12]	affinity, folds less than that for CGRP (CGRP receptor)
											R^11AR^18A: double alanine mutant of CGRP, literature (ACDTATCVTHALAGLLSASGGVVKNNFVPTNVGSKAF; not fully specified; ends and bridges not checked; UniProt P06881 83-119, looked up, variant R11A R18A)	100							
√	√	√	√	√	√	√	approximately 25%	approximately 25%	not significantly affected	not significantly affected	adrenomedullin [AM]		so low that an Emax could not be reliably determined	so low that an Emax could not be reliably determined	so low that an Emax could not be reliably determined	did not show AM-mediated effects on pEC50	did not show AM-mediated effects on pEC50	impossible to measure any activation of the receptor	approximately 10 folds
